Experimental data published in patent publication US11178871B2, “Herbicidal pyrimidine compounds” (BASF SE, priority 2016, dated 2021).

Experiments:
Assay type in all cases: in vivo
[1] = test system: Amaranthus retroflexus; test: greenhouse test, post-emergence treatment, AMARE
Source text: (§1) The culture containers used were plastic flowerpots containing loamy sand with approximately 3.0% of humus as the substrate. The seeds of the test plants were sown separately for each species.
(§2) For the post-emergence treatment, the test plants were first grown to a height of 3 to 15 cm, depending on the plant habit, and only then treated with the active ingredients which had been suspended or emulsified in water. For this purpose, the test plants were either sown directly and grown in the same containers, or they were first grown separately as seedlings and transplanted into the test containers a few days prior to treatment.
(§3) Depending on the species, the plants were kept at 10-25° C. or 20-35° C., respectively.
(§4) The test period extended over 2 to 4 weeks. During this time, the plants were tended, and their response to the individual treatments was evaluated.
(§5) Evaluation was carried out using a scale from 0 to 100. 100 means no emergence of the plants, or complete destruction of at least the aerial moieties, and 0 means no damage, or normal course of growth. A good herbicidal activity is given at values of at least 70 and a very good herbicidal activity is given at values of at least 85.
(§6) The plants used in the greenhouse experiments were of the following species: […]

[2] = test system: Echinocloa crus-galli; test: greenhouse test, post-emergence treatment, ECHCG; settings: post-emergence
Source text: as §1, §2, §3, §4, §5, §6

[3] = test system: Alopecurus myosuroides; test: greenhouse test, post-emergence treatment, ALOMY; settings: post-emergence
Source text: as §1, §2, §3, §4, §5, §6

[4] = test system: Echinocloa crus-galli; test: greenhouse test, pre-emergence treatment, ECHCG
Source text: as §1
(§7) For the pre-emergence treatment, the active ingredients, which had been suspended or emulsified in water, were applied directly after sowing by means of finely distributing nozzles. The containers were irrigated gently to promote germination and growth and subsequently covered with transparent plastic hoods until the plants had rooted. This cover caused uniform germination of the test plants, unless this had been impaired by the active ingredients.
as §3, §4, §5, §6

[5] = test system: Avena fatua; test: greenhouse test, post-emergence treatment, AVEFA
Source text: as §1, §2, §3, §4, §5, §6

[6] = test system: Apera spica-venti; test: greenhouse test, pre-emergence treatment, APESV
Source text: as §1, §7, §3, §4, §5, §6

| SMILES | herbicidal activity ([1]; 2000 g/ha) | herbicidal activity ([2]; 2000 g/ha) | herbicidal activity ([3]; 2000 g/ha) | herbicidal activity ([4]; 2000 g/ha) | herbicidal activity ([5]; 2000 g/ha) | herbicidal activity ([6]; 2000 g/ha) | other results |
| --- | --- | --- | --- | --- | --- | --- | --- |
| CCOC(=O)Cc1nc(OC)ncc1-c1ccccc1Cl [Ex. 226] |  |  |  |  |  |  | herbicidal activity ([1]; 500 g/ha): very good (a very good herbicidal activity is given at values of at least 85) |
| Brc1ccccc1-c1cnc(C2CC2)nc1-c1csc2ccccc12 [Ex. 47] |  |  |  |  |  |  | herbicidal activity ([1]; 1000 g/ha): very good (a very good herbicidal activity is given at values of at least 85) |
| OC1(c2nc(C3CC3)ncc2-c2ccccc2Cl)CCCC1 [Ex. 127] | very good (a very good herbicidal activity is given at values of at least 85) |  |  |  |  |  |  |
| O=C(O)/C=C/c1nc(C2CC2)ncc1-c1ccccc1Cl [Ex. 131] | very good (a very good herbicidal activity is given at values of at least 85) | very good (a very good herbicidal activity is given at values of at least 85) |  |  |  |  |  |
| Cc1occc1-c1nc(C2CC2)ncc1-c1ccccc1Br [Ex. 238] | very good (a very good herbicidal activity is given at values of at least 85) | very good (a very good herbicidal activity is given at values of at least 85) |  |  |  |  |  |
| COc1ccc(-c2nc(C3CC3)ncc2-c2ccccc2Cl)cc1 [Ex. 164] | very good (a very good herbicidal activity is given at values of at least 85) |  |  |  |  |  |  |
| Cc1nc(C)c(-c2nc(C3CC3)ncc2-c2ccccc2Cl)o1 [Ex. 243] |  |  |  |  |  |  | herbicidal activity ([3]; 1000 g/ha): very good (a very good herbicidal activity is given at values of at least 85); herbicidal activity ([2]; 1000 g/ha): very good (a very good herbicidal activity is given at values of at least 85); herbicidal activity ([4]; 1000 g/ha): very good (a very good herbicidal activity is given at values of at least 85); herbicidal activity ([5]; 1000 g/ha): very good (a very good herbicidal activity is given at values of at least 85); herbicidal activity ([6]; 1000 g/ha): very good (a very good herbicidal activity is given at values of at least 85) |
| COC(=O)CCc1nc(C2CC2)ncc1-c1ccccc1Cl [Ex. 132] | good (A good herbicidal activity is given at values of at least 70) | very good (a very good herbicidal activity is given at values of at least 85) |  |  |  |  |  |
| Brc1ccccc1-c1cnc(C2CC2)nc1-c1cocn1 [Ex. 287] |  |  |  |  |  |  | herbicidal activity ([3]; 1000 g/ha): very good (a very good herbicidal activity is given at values of at least 85); herbicidal activity ([2]; 1000 g/ha): very good (a very good herbicidal activity is given at values of at least 85); herbicidal activity ([4]; 1000 g/ha): very good (a very good herbicidal activity is given at values of at least 85); herbicidal activity ([5]; 1000 g/ha): very good (a very good herbicidal activity is given at values of at least 85); herbicidal activity ([6]; 1000 g/ha): very good (a very good herbicidal activity is given at values of at least 85) |
| C/C=C/c1nc(C2CC2)ncc1-c1ccccc1Cl [Ex. 93] |  | very good (a very good herbicidal activity is given at values of at least 85) | very good (a very good herbicidal activity is given at values of at least 85) | very good (a very good herbicidal activity is given at values of at least 85) | very good (a very good herbicidal activity is given at values of at least 85) | very good (a very good herbicidal activity is given at values of at least 85) |  |
| Cc1ncoc1-c1nc(C2CC2)ncc1-c1cc(F)ccc1Cl [Ex. 236] |  | very good (a very good herbicidal activity is given at values of at least 85) | very good (a very good herbicidal activity is given at values of at least 85) | very good (a very good herbicidal activity is given at values of at least 85) | very good (a very good herbicidal activity is given at values of at least 85) | very good (a very good herbicidal activity is given at values of at least 85) |  |
| Clc1ccccc1-c1cnc(C2CC2)nc1-c1cncs1 [Ex. 245] |  |  |  |  |  |  | herbicidal activity ([3]; 1000 g/ha): very good (a very good herbicidal activity is given at values of at least 85); herbicidal activity ([2]; 1000 g/ha): very good (a very good herbicidal activity is given at values of at least 85); herbicidal activity ([4]; 1000 g/ha): good (A good herbicidal activity is given at values of at least 70); herbicidal activity ([5]; 1000 g/ha): very good (a very good herbicidal activity is given at values of at least 85); herbicidal activity ([6]; 1000 g/ha): very good (a very good herbicidal activity is given at values of at least 85) |
| CC(O)C(O)c1nc(C2CC2)ncc1-c1ccccc1Cl (centres unmarked) [Ex. 147] |  | very good (a very good herbicidal activity is given at values of at least 85) | very good (a very good herbicidal activity is given at values of at least 85) | very good (a very good herbicidal activity is given at values of at least 85) | very good (a very good herbicidal activity is given at values of at least 85) | very good (a very good herbicidal activity is given at values of at least 85) |  |
| Cc1oc(C(C)C)nc1-c1nc(C2CC2)ncc1-c1ccccc1Cl [Ex. 283] |  | very good (a very good herbicidal activity is given at values of at least 85) | very good (a very good herbicidal activity is given at values of at least 85) | good (A good herbicidal activity is given at values of at least 70) | very good (a very good herbicidal activity is given at values of at least 85) | very good (a very good herbicidal activity is given at values of at least 85) |  |
| OC(c1ccccc1)C(O)c1nc(C2CC2)ncc1-c1ccccc1Cl (centres unmarked) [Ex. 153] |  | very good (a very good herbicidal activity is given at values of at least 85) | very good (a very good herbicidal activity is given at values of at least 85) | very good (a very good herbicidal activity is given at values of at least 85) | very good (a very good herbicidal activity is given at values of at least 85) | very good (a very good herbicidal activity is given at values of at least 85) |  |
| OCCc1nc(C2CC2)ncc1-c1ccccc1Cl [Ex. 255] |  |  |  |  |  |  | herbicidal activity ([1]; 500 g/ha): good (A good herbicidal activity is given at values of at least 70) |
| Cc1nc(C)c(-c2nc(C3CC3)ncc2-c2cc(F)ccc2Cl)o1 [Ex. 284] |  | very good (a very good herbicidal activity is given at values of at least 85) | very good (a very good herbicidal activity is given at values of at least 85) | very good (a very good herbicidal activity is given at values of at least 85) | very good (a very good herbicidal activity is given at values of at least 85) | very good (a very good herbicidal activity is given at values of at least 85) |  |
| OC(c1nc(C2CC2)ncc1-c1ccccc1Cl)C1(O)CCC1 (centres unmarked) [Ex. 154] |  | very good (a very good herbicidal activity is given at values of at least 85) | very good (a very good herbicidal activity is given at values of at least 85) | very good (a very good herbicidal activity is given at values of at least 85) | very good (a very good herbicidal activity is given at values of at least 85) | very good (a very good herbicidal activity is given at values of at least 85) |  |
| Clc1ccccc1-c1cnc(C2CC2)nc1/C=C/c1c(Cl)ccc(Cl)c1Cl [Ex. 232] | very good (a very good herbicidal activity is given at values of at least 85) |  |  |  |  |  |  |
